Results from patent US20110189149A1, “New Uses of Lactic Acid Bacteria and Bifidobacteria” (priority 2008, published 2011).

Test: Intraperitoneal insulin sensitivity test (IPIST)
Type: in vivo, mice
Settings: fasted 16 hours, 0.5 IU/kg intraperitoneal, after 30 minutes
Protocol: Nineteen weeks after the beginning of the study, 5 mice in each group (control diet and HFD) were weighed and subjected to an intraperitoneal insulin sensitivity test (IPIST, the protocol of which is detailed below) to check the insulin resistance of the mice. At week 20, glycaemia tests, the protocol of which is detailed below, were performed. Just after the end of these tests, mice received daily 10^9 CFU of Lactobacillus acidophilus NCFM/mouse/day by oral gavage, for 3 weeks. At week 23, animals were sacrificed after weighing and after determination of glycaemia.
Mice were fasted for 16 hours and received an intraperitoneal injection of human recombinant insulin (0.5 International Units/kg body weight); Actrapid®, Novo-Nordisk, Bagsvaerd, Denmark). Blood glucose was assayed immediately before and at 15, 30, 45, and 60 minutes after injection using a digital glucometer (Medisense Optium, Abbott, Rungis, France).

Substance: insulin: human recombinant insulin (Actrapid, Novo-Nordisk) injected intraperitoneally in the IPIST test
- decrease of glycaemia after insulin injection (control diet group): around 70%
- decrease of glycaemia after insulin injection (high-fat diet group): around 45%
